# PubChem BioAssay (NCI)
#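 Five compound concentrations were applied to cells in 96-well plates for 48 hours; endpoints were derived by simple linear interpolation of the resulting dose-response curve. Here, GI50 denotes the concentration required for 50% inhibition of growth. TGI: concentration producing complete growth inhibition.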
# Assays:
# Assay in all cases: growth of human tumour cells (NCI), 48 h
# HCT-15 colon = system: HCT-15 colon
# IGROV1 ovarian = system: IGROV1 ovarian
# NCI-H460 lung = system: NCI-H460 lung
# OVCAR-3 ovarian = system: OVCAR-3 ovarian
# A549 NSCLC = system: A549 NSCLC
# COLO 205 colon = system: COLO 205 colon
# SK-MEL-2 melanoma = system: SK-MEL-2 melanoma
# PC-3 prostate = system: PC-3 prostate
# MOLT-4 leukemia = system: MOLT-4 leukemia
# SK-OV-3 ovarian = system: SK-OV-3 ovarian
# MALME-3M melanoma = system: MALME-3M melanoma
# RPMI-8226 leukemia = system: RPMI-8226 leukemia
# K-562 leukemia = system: K-562 leukemia
# U251 CNS = system: U251 CNS
# NCI-H23 lung = system: NCI-H23 lung
# MDA-MB-231 breast = system: MDA-MB-231 breast
# DU-145 prostate = system: DU-145 prostate
# UACC-257 melanoma = system: UACC-257 melanoma
# SF-295 CNS = system: SF-295 CNS
# HOP-62 NSCLC = system: HOP-62 NSCLC
# A498 renal = system: A498 renal
# BT-549 breast = system: BT-549 breast
# RXF 393 renal = system: RXF 393 renal
# SF-539 CNS = system: SF-539 CNS
# 786-0 renal = system: 786-0 renal
# HOP-92 NSCLC = system: HOP-92 NSCLC
# UACC-62 melanoma = system: UACC-62 melanoma
# SNB-19 CNS = system: SNB-19 CNS
# M14 melanoma = system: M14 melanoma
# NCI-H226 lung = system: NCI-H226 lung
# OVCAR-5 ovarian = system: OVCAR-5 ovarian
# UO-31 renal = system: UO-31 renal
# NCI-H522 lung = system: NCI-H522 lung
# T-47D breast = system: T-47D breast
# SNB-75 CNS = system: SNB-75 CNS
# SK-MEL-28 melanoma = system: SK-MEL-28 melanoma
# SN12C renal = system: SN12C renal
# KM12 colon = system: KM12 colon
# MCF7 breast = system: MCF7 breast
# LOX IMVI melanoma = system: LOX IMVI melanoma
# TK-10 renal = system: TK-10 renal
# MDA-MB-435 = system: MDA-MB-435
# SF-268 CNS = system: SF-268 CNS
# SK-MEL-5 melanoma = system: SK-MEL-5 melanoma
# EKVX NSCLC = system: EKVX NSCLC
# HL-60(TB) leukemia = system: HL-60(TB) leukemia
# CAKI-1 renal = system: CAKI-1 renal
# HS 578T breast = system: HS 578T breast
# ACHN renal = system: ACHN renal
# SW-620 colon = system: SW-620 colon
# NCI/ADR-RES ovarian = system: NCI/ADR-RES ovarian
# HCC-2998 colon = system: HCC-2998 colon
# HT29 colon = system: HT29 colon
# SR leukemia = system: SR leukemia
# OVCAR-8 ovarian = system: OVCAR-8 ovarian
# CCRF-CEM leukemia = system: CCRF-CEM leukemia
# HCT-116 colon = system: HCT-116 colon
# OVCAR-4 ovarian = system: OVCAR-4 ovarian
compound,measurement,setting,value
N[C@H]1C[C@@H]1c1ccc(-c2cccc(O)c2)cc1,GI50,HCT-15 colon,26.7 µM
same,TGI,HCT-15 colon,> 100 µM
same,GI50,IGROV1 ovarian,30.8 µM
same,TGI,IGROV1 ovarian,> 100 µM
same,GI50,NCI-H460 lung,45.9 µM
same,TGI,NCI-H460 lung,> 100 µM
same,GI50,OVCAR-3 ovarian,38.9 µM
same,TGI,OVCAR-3 ovarian,> 100 µM
same,GI50,A549 NSCLC,50.6 µM
same,TGI,A549 NSCLC,> 100 µM
same,GI50,COLO 205 colon,29.2 µM
same,TGI,COLO 205 colon,> 100 µM
same,GI50,SK-MEL-2 melanoma,19 µM
same,TGI,SK-MEL-2 melanoma,52.6 µM
same,GI50,PC-3 prostate,26.4 µM
same,TGI,PC-3 prostate,> 100 µM
same,GI50,MOLT-4 leukemia,22.3 µM
same,TGI,MOLT-4 leukemia,74.5 µM
same,GI50,SK-OV-3 ovarian,25.1 µM
same,TGI,SK-OV-3 ovarian,> 100 µM
same,GI50,MALME-3M melanoma,14.2 µM
same,TGI,MALME-3M melanoma,44.9 µM
same,GI50,RPMI-8226 leukemia,19 µM
same,TGI,RPMI-8226 leukemia,63 µM
same,GI50,K-562 leukemia,21 µM
same,TGI,K-562 leukemia,76.1 µM
same,GI50,U251 CNS,34.7 µM
same,TGI,U251 CNS,> 100 µM
same,GI50,NCI-H23 lung,37.6 µM
same,TGI,NCI-H23 lung,> 100 µM
same,GI50,MDA-MB-231 breast,17.6 µM
same,TGI,MDA-MB-231 breast,44 µM
same,GI50,DU-145 prostate,42.2 µM
same,TGI,DU-145 prostate,> 100 µM
same,GI50,UACC-257 melanoma,23.4 µM
same,TGI,UACC-257 melanoma,63.8 µM
same,GI50,SF-295 CNS,28.1 µM
same,TGI,SF-295 CNS,> 100 µM
same,GI50,HOP-62 NSCLC,28.3 µM
same,TGI,HOP-62 NSCLC,> 100 µM
same,GI50,A498 renal,14.8 µM
same,TGI,A498 renal,69.6 µM
same,GI50,BT-549 breast,22.4 µM
same,TGI,BT-549 breast,> 100 µM
same,GI50,RXF 393 renal,17.1 µM
same,TGI,RXF 393 renal,> 100 µM
same,GI50,SF-539 CNS,24.2 µM
same,TGI,SF-539 CNS,98.4 µM
same,GI50,786-0 renal,29.6 µM
same,TGI,786-0 renal,> 100 µM
same,GI50,HOP-92 NSCLC,11.9 µM
same,TGI,HOP-92 NSCLC,72 µM
same,GI50,UACC-62 melanoma,15.9 µM
same,TGI,UACC-62 melanoma,35 µM
same,GI50,SNB-19 CNS,53.8 µM
same,TGI,SNB-19 CNS,> 100 µM
same,GI50,M14 melanoma,15.7 µM
same,TGI,M14 melanoma,36.3 µM
same,GI50,NCI-H226 lung,> 100 µM
same,TGI,NCI-H226 lung,> 100 µM
same,GI50,OVCAR-5 ovarian,37.5 µM
same,TGI,OVCAR-5 ovarian,> 100 µM
same,GI50,UO-31 renal,17.7 µM
same,TGI,UO-31 renal,82.4 µM
same,GI50,NCI-H522 lung,15 µM
same,TGI,NCI-H522 lung,35.1 µM
same,GI50,T-47D breast,23 µM
same,TGI,T-47D breast,> 100 µM
same,GI50,SNB-75 CNS,11.7 µM
same,TGI,SNB-75 CNS,49 µM
same,GI50,SK-MEL-28 melanoma,24.3 µM
same,TGI,SK-MEL-28 melanoma,69.2 µM
same,GI50,SN12C renal,34.5 µM
same,TGI,SN12C renal,> 100 µM
same,GI50,KM12 colon,29.2 µM
same,TGI,KM12 colon,93.4 µM
same,GI50,MCF7 breast,22.9 µM
same,TGI,MCF7 breast,> 100 µM
same,GI50,LOX IMVI melanoma,14.8 µM
same,TGI,LOX IMVI melanoma,29.7 µM
same,GI50,TK-10 renal,31.1 µM
same,TGI,TK-10 renal,> 100 µM
same,GI50,MDA-MB-435,22.6 µM
same,TGI,MDA-MB-435,61.6 µM
same,GI50,SF-268 CNS,27.5 µM
same,TGI,SF-268 CNS,> 100 µM
same,GI50,SK-MEL-5 melanoma,15.5 µM
same,TGI,SK-MEL-5 melanoma,30.2 µM
same,GI50,EKVX NSCLC,27.2 µM
same,TGI,EKVX NSCLC,> 100 µM
same,GI50,HL-60(TB) leukemia,17.6 µM
same,TGI,HL-60(TB) leukemia,44.9 µM
same,GI50,CAKI-1 renal,22.4 µM
same,TGI,CAKI-1 renal,82.9 µM
same,GI50,HS 578T breast,22.8 µM
same,TGI,HS 578T breast,> 100 µM
same,GI50,ACHN renal,23.2 µM
same,TGI,ACHN renal,93.3 µM
same,GI50,SW-620 colon,32.1 µM
same,TGI,SW-620 colon,> 100 µM
same,GI50,NCI/ADR-RES ovarian,36.8 µM
same,TGI,NCI/ADR-RES ovarian,> 100 µM
same,GI50,HCC-2998 colon,20 µM
same,TGI,HCC-2998 colon,67.2 µM
same,GI50,HT29 colon,34.7 µM
same,TGI,HT29 colon,> 100 µM
same,GI50,SR leukemia,24.7 µM
same,TGI,SR leukemia,65.2 µM
same,GI50,OVCAR-8 ovarian,34 µM
same,TGI,OVCAR-8 ovarian,> 100 µM
same,GI50,CCRF-CEM leukemia,29.3 µM
same,TGI,CCRF-CEM leukemia,> 100 µM
same,GI50,HCT-116 colon,25 µM
same,TGI,HCT-116 colon,> 100 µM
same,GI50,OVCAR-4 ovarian,28.9 µM
same,TGI,OVCAR-4 ovarian,> 100 µM
